Measurements published in paper PMC11448502, “Cryo-EM structures of the human P2X1 receptor reveal subtype-specific architecture and antagonism by supramolecular ligand-binding” (Nature Communications, 2024).
“And” between values parts separate entries of the source, which are not always exact repeats. Equal values may be shown once.

Legend:
thrombosis = details: in vivo; cited from earlier work
hP2X1 R139A = biological target: T1, hP2X1 R139A (Homo sapiens, UniProt P51575, R139A); assay: NF449 inhibition dose response (IC50), TEVC in oocytes; type: cell-based
T1 construct: hP2X1 mRNA that was made from linearized full-length wild-type or mutant pcDNA 3.1x; expressed in transfected cells; host or cells: Xenopus laevis oocytes (mRNA injection)
T1 sequence (P51575 1-399 R139A): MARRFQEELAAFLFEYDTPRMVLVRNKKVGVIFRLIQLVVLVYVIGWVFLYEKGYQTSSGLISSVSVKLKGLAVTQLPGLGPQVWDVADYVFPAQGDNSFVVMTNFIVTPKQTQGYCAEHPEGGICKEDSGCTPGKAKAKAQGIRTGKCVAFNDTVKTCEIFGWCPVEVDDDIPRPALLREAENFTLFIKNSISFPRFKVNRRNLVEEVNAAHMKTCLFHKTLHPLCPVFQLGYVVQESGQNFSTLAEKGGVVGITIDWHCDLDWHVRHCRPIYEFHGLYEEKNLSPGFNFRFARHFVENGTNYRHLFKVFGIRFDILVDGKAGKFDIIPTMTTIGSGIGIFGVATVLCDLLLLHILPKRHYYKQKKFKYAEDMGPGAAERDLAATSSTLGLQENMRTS
Description: Oocytes were purchased defolliculated from Ecocyte Bioscience in Barth’s Solution (88 mM NaCl, 1 mM KCl, 0.82 mM MgSO4, 0.33 mM Ca(NO3)2, 0.41 mM CaCl2, 2.4 mM NaHCO3, 5 mM Tris-HCl) supplemented with penicillin (100 U/mL) and streptomycin (100 µg/mL). Xenopus laevis oocytes were then injected with 50 nL of 100 ng/μL hP2X1 mRNA that was made from linearized full-length wild-type or mutant pcDNA 3.1x according to the protocol provided in the mMessage mMachine kit (Invitrogen). Injected oocytes were allowed to express for ~20 hours at 18 °C before recording was performed.
Data acquisition was performed using the Oocyte Clamp OC-725C amplifier and pClamp 8.2 software. Buffers were applied using a gravity fed RSC-200 Rapid Solution Changer that flows at ~5 mL/min. All experiments use Sutter filamented glass 10 cm in length with an inner diameter of 0.69 mm and an outer diameter of 1.2 mm to impale oocytes and clamp the holding voltage at −60 mV. Experiments were recorded in buffer containing 10 mM HEPES (pH 7.4), 140 mM NaCl, 5 mM KCl, 2 mM CaCl2, 2 mM MgCl2, and 10 mM glucose.
To test a dilution series of an antagonist at discrete concentrations, 10 µM ATP (2 mM ATP for K309A only) was first applied to evoke an initial maximum current. The oocyte was then washed with buffer for one minute, followed by one minute application of an antagonist test-concentration, and concluded by co-application of the same test concentration with 10 µM ATP (2 mM ATP for K309A). The antagonized signal was then normalized against the initial ATP excitatory signal. Each test concentration was performed in triplicate across different oocytes. The data was then fit to a nonlinear regression named “[inhibitor] vs. response – Variable slope (four parameters)” in Prism 9 to produce a sigmoidal curve and afford an IC50 value. Each singular condition was used to generate an average which is reported plus or minus its standard deviation between three discrete trials.

With `O=C(Nc1cc(C(=O)Nc2ccc(S(=O)(=O)O)cc2S(=O)(=O)O)cc(C(=O)Nc2ccc(S(=O)(=O)O)cc2S(=O)(=O)O)c1)Nc1cc(C(=O)Nc2ccc(S(=O)(=O)O)cc2S(=O)(=O)O)cc(C(=O)Nc2ccc(S(=O)(=O)O)cc2S(=O)(=O)O)c1` [NF449, 4,4’,4”,4’’’-(carbonylbis(imino-5,1,3-benzenetriylbis(carbonylimino)))tetrakis-benzene-1,3-disulfonic acid] as the compound, how does the effect on thrombosis (thrombosis) read?
Its effect on thrombosis is “inhibitory effect”.

And the “Normalized Current” value (hP2X1 R139A; [NF449] 1.600E-09 M)?
Its value is 0.9525 and 0.8503 and 0.8408.

What about the “Normalized Current” value (hP2X1 R139A; [NF449] 2.000E-07 M) of the same compound?
Its value is 0.2675 and 0.1529.

What about the “Normalized Current” value (hP2X1 R139A; [NF449] 3.200E-10 M) of the same compound?
Its value is 1.089 and 0.9841 and 0.9268.

And the “Normalized Current” value (hP2X1 R139A; [NF449] 4.000E-08 M)?
Its value is 0.6975 and 0.6688 and 0.5159.

What about the “Normalized Current” value (hP2X1 R139A; [NF449] 5.000E-06 M) of the same compound?
The value was 0.000000.

And the “Normalized Current” value (hP2X1 R139A; [NF449] 8.000E-09 M)?
Its value is 0.8121 and 0.8025 and 0.7834.
